Data published in paper PMC11496845, “Preparation, characterization, and in vitro cytogenotoxic evaluation of a novel dimenhydrinate-β-cyclodextrin inclusion complex” (Biomolecules and Biomedicine, 2024).
Marks after values point to notes of the source that are not given here.

Legend:
[1] = MTT assay, cell viability; conditions: male, human, peripheral blood mononuclear cells (PBMCs)
Method: (§1) Blood was collected by venipuncture into heparinized vacutainers (BD Vacutainer Systems, Plymouth, UK), stored at room temperature, protected from light, and processed within 2 h. PBMCs were isolated by density gradient centrifugation (400 × g, 30 min) with separation medium (Histopaque® - 1077). After isolation, PBMCs were stained with Trypan blue and counted using a hemocytometer.
(§2) The MTT assay is regarded as a sensitive and reliable colorimetric assay to quantify cellular viability, proliferation, and activation. It is based on the ability of mitochondrial nicotinamide adenine dinucleotide phosphate (NADPH)-dependent cellular oxidoreductase enzymes present in viable cells to reduce soluble tetrazolium salt (3-[4,5-dimethylthiazol-2-yl]-2,5 diphenyl tetrazolium bromide) to insoluble, colored formazan compounds [26].
(§3) The MTT assay was conducted in triplicate in the 96-well plate, with two technical replicates. The seeding density was 6.25 × 10^3 cells per well.
(§4) After 72 h of incubation, the reagent MTT was added to samples for 3 h at 37 ^∘C. DMSO was added to solubilize the formazan crystals followed by further incubation for 30 and 60 min at 37 ^∘C. The optical density was measured at 570 nm using the multiplate reader Multi-Scan FC (Thermo Fisher Scientific, USA). The cell viability was determined according to (5): (5) [drawing 5]

PBMCs [2] = assay: Cytokinesis block micronucleus cytome (CBMN-cyt) assay; type: cell-based, human; set-up: Total MNi (mean ± SD) / BN cells with MNi (mean ± SD) / NBUDs (mean ± SD) / NPBs (mean ± SD): unit not given here
Excerpt: DNA damage events were scored specifically in once-divided binucleated (BN) cells and included micronuclei (MNi), a biomarker of chromosome breakage and/or whole chromosome loss, nucleoplasmic bridges (NPBs), a biomarker of DNA misrepair and/or telomere end-fusions, and nuclear buds (NBUDs), a biomarker of elimination of amplified DNA and/or DNA repair complexes. Cytostatic and cytotoxic effects were examined by calculating the nuclear division index (NDI) and nuclear division cytotoxicity index (NDCI) based on the proportion of mono-, bi-, and multinucleated cells and necrotic and/or apoptotic cell ratios, respectively.
Whole blood, 400 µL per each treatment, was cultured in PB-MAX™ Karyotyping Medium for 72 h at 37 ^∘C. […] Untreated cultures were set up as negative controls. Cytochalasin B was added to the final concentration of 4.5 µg/mL to block cytokinesis.
After the cultivation period, cultures were centrifuged for 10 min at 1000 rpm (188 × g) and subjected to hypotonic treatment with 0.56% KCl and centrifuged immediately after the hypotonic addition. Hypotonic treatment was followed by three fixations in ice-cold glacial acetic acid + ethanol (1:3) fresh fixative. The fixed lymphocyte solution was dropped on coded microscope slides. Air-dried slides were stained in 5% Giemsa for 7 min. […] Frequencies of mononuclear, binuclear, trinuclear, and quadrinuclear cells, as well as apoptotic and necrotic cells, were scored in a total number of at least 500 cells. All genotoxicity and cytotoxicity parameters were recognized according to the criteria given by Fenech.

PBMCs [3] = assay: Alkaline comet assay, tail intensity; type: cell-based, human; conditions: 3 h
Method: as §1
The comet assay is a sensitive technique for measuring DNA damage at the level of the individual eukaryotic cell. It is based upon the fact that denatured cleaved DNA fragments, or damaged DNA, migrate out of the cell at a different rate during electrophoresis than undamaged DNA [32]. Damaged DNA creates a “comet tail,” while the undamaged DNA remains within the cell membrane creating the “comet head.” The Comet assay is most commonly run under alkaline conditions to detect single and double-stranded DNA breaks.
PBMCs were isolated as previously described and then cultivated in PB-MAX™ Karyotyping Medium and incubated for 24 h at 37 ^∘C. […] Positive and negative controls were also set up equally. Treated cells were incubated at 37 ^∘C for 3 h and then centrifuged at 800 rpm (120 × g) for 5 min. The supernatant was removed and the cells were subsequently resuspended.
In a tube containing 120 µL of 0.7% LMPA, 80 µL of the sample was added for each tested concentration and controls. Prepared samples were applied to slides precoated with a 1% NMPA and covered with coverslips. After gel polymerization, coverslips were removed and slides were immersed in lysis buffer overnight at 4 ^∘C. Afterward, slides were washed with distilled water and placed into the electrophoresis tank with an electrophoresis solution (200 mM Na2EDTA, 10 M NaOH, and distilled water, pH > 13) for 20 min, followed by 20 min of electrophoresis (1 V/cm). After electrophoresis, slides were gently rinsed in the following sequences: phosphate-buffered saline (PBS) for 5 min, 70% (V/V) ethanol for 5 min, and finally 96% (V/V) ethanol for 15 min.
Prior to the fluorescent microscope analysis (U-MNU2; Olympus BX51, Tokyo, Japan), slides were rehydrated and stained with DAPI (1 µg/mL). DNA damage in treated cells was evaluated using Comet Assay IV software (Instem LSS Ltd., Staffordshire, UK), by measuring tail intensity (TI%), the percent of DNA in the tail of comets. For each concentration, as well as for positive and negative controls, at least 200 comets were analyzed. The Minimum Information for Reporting Comet Assay (MIRCA) protocol was used to report the results.

HEK293 cells = system: HEK293 cells; set-up: method as in earlier work; conditions: cited from earlier work
human PBMCs = assay: MTT assay, cell viability; conditions: human PBMCs, 72 h, 36.36–109.09 ng/mL
Method: as §1, §2, §3, §4

[4] = β-CD […] (w/w), 25 mg DMH/mL of water
Method: Phase solubility studies were performed according to the Higuchi and Connors’ method [21]. […] Sample solutions were prepared as described by Hindija et al. [22]. […] Each measurement was run in triplicate.
Phase solubility studies, where the change of drug solubility corresponds to CD concentration, were conducted to assess the binding characteristics of the drug and CD and to determine the values of stability constant (Ks), complexation efficacy (CE), and utility number (UCD).
The utility number (UCD) is expressed as: (4) [drawing 4] where mD and mCD are the drug dose and workable amount of CD in mg, respectively, while MWD and MWCD stand for molecular weights of D and CD [22].

LO2 cells = system: LO2 cells; set-up: method as in PMID 26256188; conditions: cited from earlier work
[5] = system: endothelial (HUVEC) cells; conditions: cited from earlier work
HeLa cells = system: HeLa cells; set-up: method as in PMID 19616959; conditions: cited from earlier work
Calu-3 cells = system: Calu-3 cells; set-up: method as in PMID 18160169; conditions: cited from earlier work
mouse retinal cells = system: mouse retinal cells; set-up: method as in PMID 33803405; conditions: cited from earlier work
MDA-MB-231 cancer cells = conditions: cited from earlier work
HCT-116 cancer cells = conditions: cited from earlier work

SMILES: O=c1[nH]cc(F)c(=O)[nH]1 [5-FU, 5-fluorouracil]
- viability at 72 h, 100 µg/mL [1]: 64.8%
- BN cells with MNi (mean ± SD) (PBMCs [2]; positive control): 19 ± 6.56
- NBUDs (mean ± SD) (PBMCs [2]; positive control): 3.5 ± 1.92
- NDCI, nuclear division cytotoxicity index (mean ± SD) (PBMCs [2]; positive control): 1.577 ± 0.01
- NDI, nuclear division index (mean ± SD) (PBMCs [2]; positive control): 1.612 ± 0.01
- NPBs (mean ± SD) (PBMCs [2]; positive control): 1 ± 0.82
- Total MNi (mean ± SD) (PBMCs [2]; positive control): 19.25 ± 6.65
- Genotoxic effects in alkaline comet assay (PBMCs [3]): genotoxic effects were observed
- Tail intensity (mean ± SD) (PBMCs [3]; 5-FU 100 µg/mL): 5.93 ± 0.23%

SMILES: CN(C)CCOC(c1ccccc1)c1ccccc1.Cn1c(=O)c2[nH]c(Cl)nc2n(C)c1=O [DMH, 2-benzhydryloxy-N,N-dimethylethanamine; 8-chloro-1,3-dimethyl-7H-purine-2,6-dione]
- Effect on cell viability (HEK293 cells): may slightly affect the viability
- Difference in cell viability versus negative control (Tukey–Kramer) (human PBMCs): no statistically significant differences
- NBUDs (mean ± SD) (PBMCs [2]; DMH 72.73 ng/mL): 0.75 ± 0.96^s
- NPBs (mean ± SD) (PBMCs [2]; DMH 72.73 ng/mL): 0.25 ± 0.5
- Total MNi (mean ± SD) (PBMCs [2]; DMH 72.73 ng/mL, BN cells): 4.25 ± 0.96^r, s
- NBUDs (mean ± SD) (PBMCs [2]; DMH 90.91 ng/mL): 1.75 ± 1.26^s
- NPBs (mean ± SD) (PBMCs [2]; DMH 90.91 ng/mL): 0.25 ± 0.5
- Total MNi (mean ± SD) (PBMCs [2]; DMH 90.91 ng/mL, BN cells): 6.5 ± 1.92^s
- NBUDs (mean ± SD) (PBMCs [2]; DMH 109.09 ng/mL): 1 ± 0.82^s
- NPBs (mean ± SD) (PBMCs [2]; DMH 109.09 ng/mL): 0.25 ± 0.5
- Total MNi (mean ± SD) (PBMCs [2]; DMH 109.09 ng/mL, BN cells): 6.5 ± 2.38^s
- UCD, utility number [4]: 1.156

SMILES: OC[C@H]1O[C@@H]2O[C@H]3[C@H](O)[C@@H](O)[C@@H](O[C@H]4[C@H](O)[C@@H](O)[C@@H](O[C@H]5[C@H](O)[C@@H](O)[C@@H](O[C@H]6[C@H](O)[C@@H](O)[C@@H](O[C@H]7[C@H](O)[C@@H](O)[C@@H](O[C@H]8[C@H](O)[C@@H](O)[C@@H](O[C@H]1[C@H](O)[C@H]2O)O[C@@H]8CO)O[C@@H]7CO)O[C@@H]6CO)O[C@@H]5CO)O[C@@H]4CO)O[C@@H]3CO [β-CD, β-cyclodextrin]
- viability at 72 h, 1000 ng/mL [1]: 90.3%
- Effect on cell viability (LO2 cells): does not affect cell viability
- Effect on cell viability [5]: does not affect cell viability
- Effect on cell viability (HeLa cells): does not affect cell viability
- Effect on cell viability (Calu-3 cells): does not affect cell viability
- Effect on cell viability (mouse retinal cells): does not affect cell viability
- Effect on cell viability (MDA-MB-231 cancer cells): does not affect cell viability
- Tail intensity (mean ± SD) (PBMCs [3]; concentration of β-CD 250 ng/mL): 3.02 ± 1.45%
- Tail intensity (mean ± SD) (PBMCs [3]; concentration of β-CD 500 ng/mL): 3.22 ± 1.09%
- Tail intensity (mean ± SD) (PBMCs [3]; concentration of β-CD 750 ng/mL): 3.25 ± 1.02%
- Tail intensity (mean ± SD) (PBMCs [3]; concentration of β-CD 1000 ng/mL): 3.42 ± 1.08%
- Effect on cell viability (HCT-116 cancer cells): does not affect cell viability
